This passage reports lowest active dose and melting point results from US8637510B2, “Morpholinothiazoles as alpha 7 positive allosteric modulators” (Janssen Pharmaceutica NV, priority 2009, dated 2014).

Series [1] concerns DBA/2 mice. As to the kind of experiment: Auditory evoked potential test in DBA/2 mice. It is filed as in vivo, mouse. The conditions noted are these: s.c.; male DBA/2 mice; TC ratio vs baseline, p<0.05. The source says: A number of compounds according to the invention have proven active in the auditory evoked potential test. […] The DBA/2 mouse has proven to be a useful model of schizophrenia-like sensory processing deficits. Human studies of nicotine effects on sensory processing predicted the results in the DBA/2 mouse and studies with the selective alpha 7 agonist GTS-21 in DBA/2 mice, predicted the effects in humans. This model of sensory gating ability therefore has high translational relevance.
The vehicle used was 20% hydroxypropyl-β-cyclodextrin (HP-β-CD) in water, acidified slightly with a few drops of tartaric acid. Both drug solution and vehicle were administered s.c. in a volume of 4 ml/kg. […]
The ratio of the P20-N40 amplitude of response to the second (test) stimulus and the first (conditioning) stimulus provides a measure of sensory inhibition; the ratio of the test to the conditioning amplitude (TC ratio) is 0.5 or less for most rodent strains and normal humans. […] The maximum negativity between 20 and 60 ms after the two stimuli was selected as the N40 wave and measured relative to the preceding positivity, the P20 wave. The amplitude from the P20 to the N40 wave was determined for both the conditioning and the test response. […]
All data were analyzed by multivariate analysis of variance with repeated measures. […]

By melting point is commonly meant the temperature of the solid-liquid transition. For `Cc1cc(-c2sc(N3C[C@@H](C)O[C@@H](C)C3)nc2CNC(=O)c2conc2C)cc(C)n1` [Compound 18, N-[[2-[(2R,6S)-2,6-dimethyl-4-morpholinyl]-5-(2,6-dimethyl-4-pyridinyl)-4-thiazolyl]methyl]-3-methyl-4-isoxazolecarboxamide], the melting point came out at 141 °C. The lowest active dose in series [1] stood at 0.04 mg/kg.
The corresponding values for `Cc1cc(-c2sc(N3C[C@@H](C)O[C@@H](C)C3)nc2CNC(=O)CC2CC2)cc(C)n1` [Compound 1, N-[[2-[(2R,6S)-2,6-dimethyl-4-morpholinyl]-5-(2,6-dimethyl-4-pyridinyl)-4-thiazolyl]methyl]-cyclopropaneacetamide] are 174 °C and 0.63 mg/kg.
